These results are taken from patent US5602174A, “Treatment” (Beecham Wuefling GmbH & Co., priority 1986, dated 1997).

One assay has as its system coronary spasm. Briefly: Vasopressin test in anaesthetized rats (coronary spasm, ST-segment elevation in the ECG). The format is in vivo, rat. As to conditions: 0.6 g/kg i.d., vasopressin (Lysopressin 1 I.U./kg) i.v. Here is the method: Vasopressin (Lysopressin: 1 I.U./kg) was administered intravenously in order to provoke coronary spasm (ST-segment elevation in the ECG).
The ability of test compounds to reduce coronary spasm is taken as a measure of their anti-anginal potential in spasm-induced angina pectoris. (Ref. Drug. Res. 33(11), 8,1117-1121 (1983)).

The nature of assay [1]: Haemodynamic profile in anaesthetized rats. The class given is in vivo, rat. Set-up: Dhr^20 (i.v. dose which reduces heart rate by ca. 20%) / Dhr^20 (dose which reduces heart rate by ca. 20%): unit not given here. The text has this:
The effect of compounds of the invention on heart rate, systolic left ventricular pressure, left ventricular dp/dt max and mean arterial blood pressure was investigated so as to obtain information on the anti-anginal potential of these compounds, by reducing the oxygen demand of the ischaemic heart.
*Dhr^20 = i.v. dose which reduces heart rate by ca. 20%
**LVP = systolic left ventricular pressure
***BP = mean arterial blood pressure
^a = i.d. administration

The mark [2] stands for this setting: i.v. at Dhr^20, anaesthetized rat.

`COc1ccc(CCN(C)CCCN(Cc2ccccc2[N+](=O)[O-])c2ccc(OC)c(OC)c2)cc1OC` [Example E1]: the “active against coronary spasm” value with coronary spasm is given as “active”. In assay [1] (setting [2]), the “% effect of Dhr^20 on BP (mean arterial blood pressure)” value (from here on “% effect of Dhr^20 on BP”) came to 0%, the “% effect of Dhr^20 on LVP (systolic left ventricular pressure)” value (shortened to “% effect of Dhr^20 on LVP”) is -2% and the “% effect of Dhr^20 on dp/dtmax (left ventricular dp/dt max)” value (“% effect of Dhr^20 on dp/dtmax” for short) is reported as -3%. In assay [1] (i.v., anaesthetized rat), the “Dhr^20 (i.v. dose which reduces heart rate by ca. 20%)” value is given as 1.6 and the “i.v. duration of action on heart rate (rat)” value (shortened to “i.v. duration of action”) turned out to be 10 min.

In the case of `COc1ccc(CCN(C)CCCN(Cc2ccccc2)c2ccc(OC)c(OC)c2)cc1OC` [Example E4, (N-[3,4-Dimethoxyphenyl]-N-3-[N'-2-(3,4-dimethoxyphenyl)-ethyl-N'-methylamino]-propyl)-benzylamine], in assay [1] (setting [2]), the “% effect of Dhr^20 on BP” value is given as -6%, the “% effect of Dhr^20 on LVP” value is given as -3% and the “% effect of Dhr^20 on dp/dtmax” value is on record as -12%. For the same molecule, in assay [1] (i.v., anaesthetized rat), the “Dhr^20 (i.v. dose which reduces heart rate by ca. 20%)” value is on record as 3.2 and the “i.v. duration of action” value was 10 min.

On to `COc1ccc(CCN(C)CCCN(Cc2ccc([N+](=O)[O-])cc2)c2ccc(OC)c(OC)c2)cc1OC` [Example E6, (N-[3,4-Dimethoxyphenyl]-N-3-[N'-2-(3,4-dimethoxyphenyl)-ethyl-N'-methylamino]-propyl)-(4-nitro)-benzylamine], for which, in assay [1] (setting [2]), the “% effect of Dhr^20 on BP” value was “+1%”, the “% effect of Dhr^20 on LVP” value is “+5%” and the “% effect of Dhr^20 on dp/dtmax” value is on record as -5%. Further, in assay [1] (i.v., anaesthetized rat), the “Dhr^20 (i.v. dose which reduces heart rate by ca. 20%)” value worked out at 0.4 and the “i.v. duration of action” value was determined as 60 min.

Consider `CCCCC(=O)N(CCCN(C)CCc1ccc(OC)c(OC)c1)c1ccc(OC)c(OC)c1` [Example E12, (N-[3,4-Dimethoxyphenyl]-N-3-[N'-2-(3,4-dimethoxyphenyl)-ethyl-N'-methylamino]-propyl)-pentanoic acid amide], for which, in assay [1] (setting [2]), the “% effect of Dhr^20 on BP” value is recorded as -11%, the “% effect of Dhr^20 on LVP” value is -6% and the “% effect of Dhr^20 on dp/dtmax” value is on record as -6%. For the same molecule, in assay [1] (i.v., anaesthetized rat), the “Dhr^20 (i.v. dose which reduces heart rate by ca. 20%)” value amounted to 1.6 and the “i.v. duration of action” value came to 10 min.

Take `COc1ccc(CCN(C)CCCN(C(=O)CCc2ccccc2)c2ccc(OC)c(OC)c2)cc1OC` [Example E15, (N-[5,4-Dimethoxyphenyl]-N-3-[N'-2-(3,4-dimethoxyphenyl)-ethyl-N'-methylamino]-propyl)-(3-phenyl)propanoic acid amide]: in assay [1] (setting [2]), the “% effect of Dhr^20 on BP” value was -8%, the “% effect of Dhr^20 on LVP” value is listed as -7% and the “% effect of Dhr^20 on dp/dtmax” value is reported as -7%. Besides, in assay [1] (i.v., anaesthetized rat), the “Dhr^20 (i.v. dose which reduces heart rate by ca. 20%)” value is given as 1.6 and the “i.v. duration of action” value stood at 10 min.

In the case of `CCCCOC(=O)N(CCCN(C)CCc1ccc(OC)c(OC)c1)c1ccc(OC)c(OC)c1` [Example E24, (N-[3,4-Dimethoxyphenyl]-N-3-[N'-2-(3,4-dimethoxyphenyl)-ethyl-N'methylamino]-propyl)-n-butyl-urethane], in assay [1] (setting [2]), the “% effect of Dhr^20 on BP” value is on record as -15%, the “% effect of Dhr^20 on LVP” value is listed as -13% and the “% effect of Dhr^20 on dp/dtmax” value is -8%. Besides, in assay [1] (i.v., anaesthetized rat), the “Dhr^20 (i.v. dose which reduces heart rate by ca. 20%)” value turned out to be 3.2 and the “i.v. duration of action” value stood at 10 min.

Turning to `COc1ccc(CCN(C)CCCN(C(=O)Oc2ccccc2)c2ccc(OC)c(OC)c2)cc1OC` [Example E25, (N-[3,4-Dimethoxyphenyl]-N-3-[N'-2-(3,4-dimethoxyphenyl)-ethyl-N'-methylamino]-propyl)-phenyl-urethane], in assay [1] (setting [2]), the “% effect of Dhr^20 on BP” value was -14%, the “% effect of Dhr^20 on LVP” value is reported as -10% and the “% effect of Dhr^20 on dp/dtmax” value was -2%. In assay [1] (i.v., anaesthetized rat), the “Dhr^20 (i.v. dose which reduces heart rate by ca. 20%)” value was 0.8 and the “i.v. duration of action” value came to 10 min.

Regarding `CCCNC(=O)N(CCCN(C)CCc1ccc(OC)c(OC)c1)c1ccc(OC)c(OC)c1` [Example E27, (N-[3,4-Dimethoxyphenyl]-N-3-[N'-2-(3,4-dimethoxyphenyl)-ethyl-N'-methylamino]-propyl)-N"-n-propyl-urea], in assay [1] (setting [2]), the “% effect of Dhr^20 on BP” value is on record as -4%, the “% effect of Dhr^20 on LVP” value is -2% and the “% effect of Dhr^20 on dp/dtmax” value is on record as -1%. Moreover, in assay [1] (i.v., anaesthetized rat), the “Dhr^20 (i.v. dose which reduces heart rate by ca. 20%)” value came out at 6.4 and the “i.v. duration of action” value was in the range of 5 to 10 min.

Take `COc1ccc(CCN(C)CCCN(C(=O)NCc2ccccc2)c2ccc(OC)c(OC)c2)cc1OC` [Example E30, (N-[3,4-Dimethoxyphenyl]-N-3-[N'-2-(3,4-dimethoxyphenyl)-ethyl-N'-methylamino]-propyl)-N"-benzylurea]: in assay [1] (setting [2]), the “% effect of Dhr^20 on BP” value was -15%, the “% effect of Dhr^20 on LVP” value was -10% and the “% effect of Dhr^20 on dp/dtmax” value was -20%. In assay [1] (i.v., anaesthetized rat), the “Dhr^20 (i.v. dose which reduces heart rate by ca. 20%)” value came to 1.6 and the “i.v. duration of action” value is recorded as 10 min.

As to `COc1ccc(CCN(C)CCN(C(=O)NC(C)c2ccccc2)c2ccc(OC)c(OC)c2)cc1OC` (centres unmarked) [Example E32], in assay [1] (setting [2]), the “% effect of Dhr^20 on BP” value is on record as -13%, the “% effect of Dhr^20 on LVP” value is reported as -7% and the “% effect of Dhr^20 on dp/dtmax” value is on record as -3%. In addition, in assay [1] (i.v., anaesthetized rat), the “Dhr^20 (i.v. dose which reduces heart rate by ca. 20%)” value was found to be 3.2 and the “i.v. duration of action” value worked out at 10 min.

Regarding `CCCCCN(CCCN(C)CCc1ccc(OC)c(OC)c1)c1ccc(OC)c(OC)c1` [Example E34, (N-[3,4-Dimethoxyphenyl]-N-3-[N'-2-(3,4-dimethoxyphenyl)-ethyl-N'-methylamino]-propyl)-n-pentylamine], in assay [1] (setting [2]), the “% effect of Dhr^20 on BP” value was -9%, the “% effect of Dhr^20 on LVP” value was -9% and the “% effect of Dhr^20 on dp/dtmax” value was -10%. In assay [1] (i.v., anaesthetized rat), the “Dhr^20 (i.v. dose which reduces heart rate by ca. 20%)” value was found to be 1.6 and the “i.v. duration of action” value fell in the range of 5 to 10 min.

Turning to `COc1ccc(CCN(C)CCCN(c2ccc(OC)c(OC)c2)c2ncc([N+](=O)[O-])cc2[N+](=O)[O-])cc1OC` [Example E44], in assay [1] (setting [2]), the “% effect of Dhr^20 on BP” value was -10%, the “% effect of Dhr^20 on LVP” value is recorded as -6% and the “% effect of Dhr^20 on dp/dtmax” value is reported as -8%. Moreover, in assay [1] (i.v., anaesthetized rat), the “Dhr^20 (i.v. dose which reduces heart rate by ca. 20%)” value is 3.2 and the “i.v. duration of action” value came to 10 min.

As for `COc1ccc(CCN(C)CCCN(C(=O)c2ccc([N+](=O)[O-])cc2)c2ccc(OC)c(OC)c2)cc1OC` [Example E50, (N-[3,4-Dimethoxyphenyl]-N-3-[N'-2-(3,4-dimethoxyphenyl)-ethyl-N'-methyl-amino]-propyl)-4-nitrobenzamide], in assay [1] (rat, in vivo), the “% effect of Dhr^20 on BP” value is on record as -6%, the “Dhr^20 (dose which reduces heart rate by ca. 20%)” value is 16 and the “duration of action on heart rate (rat)” value is over 90 min. In assay [1] (rat, in vivo, iv), the “% effect of Dhr^20 on BP” value is -1%, the “% effect of Dhr^20 on LVP” value was -1%, the “Dhr^20 (i.v. dose which reduces heart rate by ca. 20%)” value is 1.6 and the “i.v. duration of action” value is recorded as 10 min.
